From patent publication US20120070421A1 (priority 2009, published 2012) come the findings set out here.

One assay relates to Phytophthora infestans. The assay is classed as cell-based. Conditions: 0.00025 ppm, single active, 7 days after inoculation.
In a further assay the test system is Pyricularia oryzae. It counts as cell-based. The note with it: single active, 7 days after inoculation.
Another assay has as its system Plasmopara viticola. As to the kind of experiment: Green house: fungicidal control of grape downy mildew, protective spray on grape cuttings. It counts as in vivo. Conditions: single active, grape plants, sprayed 1 day before inoculation. The procedure: The stock solution were prepared: a mixture of acetone and/or dimethylsulfoxide and the wetting agent/emulsifier Wettol, which is based on ethoxylated alkylphenoles, in a relation (volume) solvent-emulsifier of 99 to 1 was added to 25 mg of the compound to give a total of 10 ml. Water was then added to total volume of 100 ml. This stock solution was diluted with the described solvent-emulsifier-water mixture to the given concentration.
The visually determined percentages of infected leaf areas are converted into efficacies in % of the untreated control.
The efficacy (E) is calculated as follows using Abbot's formula: […]
α corresponds to the fungicidal infection of the treated plants in % and β corresponds to the fungicidal infection of the untreated (control) plants in %
An efficacy of 0 means that the infection level of the treated plants corresponds to that of the untreated control plants; an efficacy of 100 means that the treated plants were not infected.
The expected efficacies of active compound combinations were determined using Colby's formula (Colby, S. R. “Calculating synergistic and antagonistic responses of herbicide combinations”, Weeds, 15, pp. 20-22, 1967) and compared with the observed efficacies.
Colby's formula: E=x+y−x·y/100
E expected efficacy, expressed in % of the untreated control, when using the mixture of the active compounds A and B at the concentrations a and b x efficacy, expressed in % of the untreated control, when using the active compound A at the concentration a y efficacy, expressed in % of the untreated control, when using the active compound B at the concentration b.
Grape cuttings were grown in pots to the 4 to 5 leaf stage. These plants were sprayed to run-off with an aqueous suspension, containing the concentration of active ingredient or their mixture mentioned in the table below. The plants were allowed to air-dry. […] Then the extent of fungal attack on the lower leaf surface was visually assessed as % diseased leaf area.

Where two headings read alike, the source gives them in different places.

As for `Cc1cc(C(F)(F)F)nn1CC(=O)N1CCC(c2nc(C(=O)N(C)[C@@H]3CCCc4ccccc43)cs2)CC1` [2-{1-[2-(5-methyl-3-trifluoromethyl-pyrazol-1-yl)-acetyl]-piperid-4-yl}-thiazole-4-carboxylic acid methyl-(R)-1,2,3,4-tetrahydro-naphthalen-1-yl-amide], the Observed efficacy in the assay with Phytophthora infestans came to 0%; in the assay with Pyricularia oryzae (0.063 ppm), 1%; in the assay with Pyricularia oryzae (63 ppm), 28%; with Plasmopara viticola (0.063 ppm), 67%.

For `CCCCCCCCc1c(CC)nc2ncnn2c1N` [drawing 13, reference compound], the Observed efficacy with Pyricularia oryzae (4 ppm) is on record as 10%. For `CCCCCCCCc1c(CC)nc2ncnn2c1N` [drawing 4], the Observed efficacy with Plasmopara viticola (0.016 ppm) was 11%.

Take `Cn1cc(C(=O)Nc2ccccc2-c2cc(F)c(F)c(F)c2)c(C(F)F)n1`: in the assay on Plasmopara viticola (0.016 ppm), the Observed efficacy came out at 0%.
